Like-named read-outs stand apart in the source and are kept apart here.
Legend:
[1] = tested on: SK-MEL-2 human melanoma xenograft (NRAS mutant); assay type: in vivo; conditions: for Non-Specific Deaths / Regression (100%) / Tumor Free on Day 74: n=8; for Delta AUC: vs vehicle
Method: Eight week old female athymic NCr-nu/nu mice were inoculated SC with 30-40 mg tumor fragments, propagated in an in vivo passage, in the area of the right flank. Tumor growth was monitored with vernier calipers and the tumor volume was calculated using the formula (0.5×[length×width^2]). When the mean tumor volume (MTV) reached approximately 167 mm^3 (range of 100-245 mm^3) animals were randomized into 12 treatment groups (n=8/group). The animals were dosed beginning 12 days after tumor inoculation with either vehicles or test compounds. The first day of treatment was designated as Day 0.
The 10 mg/mL solution was diluted with 100% PEG 400 for the lower dose.
Sodium alisertib was formulated in a half volume of 20% HPBCD in WFI and then diluted to a final volume (10% HPBCD/1% NaHCO3 in WFI) with 2% sodium bicarbonate in WFI.
The 2 vehicles, 100% PEG 400 (Vehicle 1) and 10% HPBCD/1% NaHCO3 in WFI (Vehicle 2) were administered (0.05 mL/10 g BW) concomitantly to mice in the vehicle group.
Tumor size and body weight were measured BIW beginning on the first day of treatment. Animals were terminated when their tumor reached approximately 2000 mm3, and the study was terminated on Day 62 post treatment initiation.
Inhibition of tumor growth was determined by calculating the percent TGI (MTV of the vehicle group−MTV of a treated group)/MTV of the vehicle group on Day 20 post treatment initiation. Statistical comparisons of tumor growth between treatment groups and vehicle were conducted using a linear mixed effects regression analysis on the ΔAUC.
Additional endpoints used to evaluate efficacy were: nonspecific deaths, complete tumor response, and the number of tumor-free survivors (TFS), defined as no measurable tumor observed on the last day of data collection prior to study termination (Day 62 post treatment initiation). A complete response (CR) was defined as a decrease in tumor mass to an undetectable size (<32 mm3).
The differences in the tumor growth trends over time between the vehicle control and treatment groups were assessed using linear mixed effects regression models. These models take into account that each animal was measured at multiple time points. A model was fit for the comparison, and the areas under the tumor volume-versus-time curve (AUCs) for control and treatment groups were calculated using the values predicted from the model.
These values were compared across treatment groups to assess whether the differences in trends over time were statistically significant. To compare pairs of treatment groups, the following mixed-effects linear regression model was fit to the data using the maximum likelihood method:
Where Yijk is the log 10 tumor value at the jth time point of the kth animal in the ith treatment, Yi0k is the day 0 (baseline) log 10 tumor value in the kth animal in the ith treatment, dayj was the median-centered time point and (along with day2j) was treated as a continuous variable, and eijk is the residual error. A spatial power law covariance matrix was used to account for the repeated measurements on the same animal over time. Interaction terms as well as day2j terms were removed if there were not statistically significant.
The −2 log likelihood of the full model was compared to one without any treatment terms (reduced model) and the difference in the values was tested using a Chi-squared test. The degrees of freedom of the test were calculated as the difference between the degrees of freedom of the full model and that of the reduced model.
The predicted differences in the log tumor values (Yijk-Yi0k, which can be interpreted as log 10 (fold change from day 0)) were taken from the above models to calculate mean AUC values for each treatment group. A dAUC value was then calculated as: […]
For synergy analysis, the observed differences in the log tumor values were used to calculate AUC values for each animal. […]

[2] = tested on: A375 melanoma xenograft (B-Raf mutant); assay: In vivo tumor efficacy, B-Raf mutated A375 human melanoma xenograft model; parameters: species or system Mouse (Mus musculus) Athymic Balb/c Nude; conditions: for Mean Maximum % BWL: Day 0 to Day 21; for TGI: Day 21 post treatment initiation
Method: Each animal was inoculated with 3×10^6 A375 tumor cells (in 0.1 mL, 1:1 with Matrigel) into the right flank for tumor model development. Body weight and the tumor growth were monitored twice weekly. Tumor size was measured to the nearest 0.1 mm using vernier calipers and applying the formula V=W2×L/2, where V=volume, W=width, and L=length for the tumor xenograft. Xenografts were allowed to grow until they reached an average size of approximately 195 min3, 11 days after inoculation.
Sodium alisertib was formulated in 10% HPβCD plus 1% NaHCO3 in water for injection (WFI) (Vehicle 2). Alisertib was prepared and stored at room temperature (18 to 25° C.).
Animals in the vehicle treatment group were given both Vehicle 1 and Vehicle 2.
The dose volume for vehicle or compound was 5 mL/kg body weight.
Tumor size and body weight were measured twice weekly beginning on the day of animal grouping (e.g., Day 0). Animals were terminated when their tumor reached approximately 2000 mm3 and the study was terminated on Day 38 post treatment initiation.
Inhibition of tumor growth was determined by calculating the percent TGI (MTV of the vehicle group−MTV of a treated group)/MTV of the vehicle group] on Day 21 post treatment initiation. Statistical comparisons of tumor growth between treatment groups and vehicle were conducted using a linear mixed effects regression analysis on the ΔAUC.
Statistical analysis was carried out as described in Example 2.

[3] = alisertib 20 mg/kg/inj PO Q1D x 21 from Day 12 (+Vehicle 1)
[4] = alisertib 10 mg/kg PO QD Days 1-21 (+Vehicle 1)
[5] = alisertib 20 mg/kg PO QD Days 1-21 (+Vehicle 1)
[6] = Compound A 12.5 mg/kg/inj PO Q1D x 21 from Day 12 (+Vehicle 2)
[7] = Compound A 50 mg/kg/inj PO Q3D x 2/3 wks (BIW) from Day 12 (+Vehicle 2)
[8] = Compound A 12.5 mg/kg PO QD Days 1-21 (+Vehicle 2)
[9] = Compound A 50 mg/kg PO BIW Days 1, 4, 8, 11, 15, 18 (+Vehicle 2)

COc1cc(Nc2ncc3c(n2)-c2ccc(Cl)cc2C(c2c(F)cccc2OC)=NC3)ccc1C(=O)O [alisertib, 4-{[9-chloro-7-(2-fluoro-6-methoxyphenyl)-5H-pyrimido[5,4-d][2]benzazepin-2-yl]amino}-2-methoxybenzoic acid, reference compound]
Mean Tumor Volume on Day 32 [1, 3]: 872 mm^3
TGI on Day 32 [1, 3]: 60.3%
Non-Specific Deaths [1, 3]: 0
Regression (100%) [1, 3]: 0
Tumor Free on Day 74 [1, 3]: 0
Delta AUC [1, 3]: 30.9
Mean Maximum % BWL [2, 4]: 0%
TGI [2, 4]: 21.7%
Mean Maximum % BWL [2, 5]: 0%
TGI [2, 5]: 40.7%

C[C@@H](NC(=O)c1ncnc(N)c1Cl)c1ncc(C(=O)Nc2cc(C(F)(F)F)c(Cl)cn2)s1 [Compound A, (R)-2-(1-(6-amino-5-chloropyrimidine-4-carboxamide)ethyl)-N-(5-chloro-4-(trifluoromethyl)pyridin-2-yl)thiazole-5-carboxamide]
Mean Tumor Volume on Day 32 [1, 6]: 645 mm^3
TGI on Day 32 [1, 6]: 70.7%
Non-Specific Deaths [1, 6]: 0
Regression (100%) [1, 6]: 0
Tumor Free on Day 74 [1, 6]: 0
Delta AUC [1, 6]: 37.3
Mean Tumor Volume on Day 32 [1, 7]: 816 mm^3
TGI on Day 32 [1, 7]: 62.9%
Non-Specific Deaths [1, 7]: 0
Regression (100%) [1, 7]: 0
Tumor Free on Day 74 [1, 7]: 0
Delta AUC [1, 7]: 35.6
Mean Maximum % BWL [2, 8]: 0%
TGI [2, 8]: 76.4%
Mean Maximum % BWL [2, 9]: 0%
TGI [2, 9]: 45.3%

Reference: patent US20180263979A1, “COMBINATION OF RAF INHIBITORS AND AURORA KINASE INHIBITORS” (MILLENNIUM PHARMACEUTICALS, INC., priority 2014, published 2018)
